According to publication PMC6650409, “Modeling the binding of diverse ligands within the Ah receptor ligand binding domain” (Scientific Reports, 2019):

How the values were obtained:
H331A mutant AhR = biological target: T1, H331A mutant AhR (Mus musculus, UniProt P30561, H331A); experiment: [3H]TCDD competitive ligand binding, H331A mutant AhR
T1 construct: made in house; host or cells: in vitro, Promega TNT Quick rabbit reticulocyte lysate
T1 sequence (P30561 10-848 H331A): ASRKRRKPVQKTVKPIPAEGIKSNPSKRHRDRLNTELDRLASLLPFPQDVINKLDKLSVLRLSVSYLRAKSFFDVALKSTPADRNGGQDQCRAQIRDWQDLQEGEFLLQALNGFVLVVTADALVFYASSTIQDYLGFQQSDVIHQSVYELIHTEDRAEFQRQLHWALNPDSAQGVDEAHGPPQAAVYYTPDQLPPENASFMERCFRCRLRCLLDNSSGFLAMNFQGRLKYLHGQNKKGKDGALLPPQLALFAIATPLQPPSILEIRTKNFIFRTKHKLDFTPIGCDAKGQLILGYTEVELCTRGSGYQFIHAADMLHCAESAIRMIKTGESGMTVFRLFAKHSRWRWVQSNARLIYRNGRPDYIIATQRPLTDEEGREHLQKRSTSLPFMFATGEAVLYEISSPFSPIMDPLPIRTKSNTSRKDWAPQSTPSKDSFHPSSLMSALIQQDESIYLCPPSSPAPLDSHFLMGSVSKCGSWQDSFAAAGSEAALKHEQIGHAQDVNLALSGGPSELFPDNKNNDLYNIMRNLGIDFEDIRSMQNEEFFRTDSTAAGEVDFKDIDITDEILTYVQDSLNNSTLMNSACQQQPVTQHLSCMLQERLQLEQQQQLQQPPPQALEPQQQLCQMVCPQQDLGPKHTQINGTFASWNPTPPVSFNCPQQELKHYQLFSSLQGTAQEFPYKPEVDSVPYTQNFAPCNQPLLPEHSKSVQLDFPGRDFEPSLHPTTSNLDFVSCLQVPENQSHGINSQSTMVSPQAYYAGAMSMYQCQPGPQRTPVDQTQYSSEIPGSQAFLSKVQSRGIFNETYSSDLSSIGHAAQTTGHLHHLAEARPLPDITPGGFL
Description: The mouse AhR (mAhR) and ARNT (mARNT) expression plasmids, mβAhR/pcDNA3 and mβArnt/pcDNA3, have been previously described. Point mutations of mβAhR/pcDNA3 were carried out using the QuikChange Lightning Mutagenesis Kit (Agilent Technologies) and all constructs were verified by sequencing.
[^3H]TCDD specific binding to wild-type or mutant mAhRs synthesized in vitro using the Promega TNT Quick coupled transcription/translation rabbit reticulocyte lysate kit (Madison, WI) was carried out as previously described. [^3H]TCDD specific binding was determined by subtracting the amount of [^3H]TCDD bound to unprogrammed lysate (nonspecific binding) from the total amount of [^3H]TCDD binding to lysate containing in vitro expressed AhR. The amount of [^3H]TCDD specific binding remaining in the presence of the indicated competitor chemical was expressed as a percent of the total [^3H]TCDD specific binding. The relative binding affinity (IC50) of each chemical was determined from concentration-dependent competitive inhibition curves obtained using [^3H]TCDD and increasing concentrations of each test chemical and the mean IC50 value was determined using three-parameter non-linear regression.

L309A mutant AhR = biological target: T2, L309A mutant AhR (Mus musculus, UniProt P30561, L309A); parameters: method as in PMID 21981577; settings: L309A mutation; cited from earlier work
T2 construct: made in house; host or cells: in vitro transcription/translation (rabbit reticulocyte lysate)
T2 sequence (P30561 10-848 L309A): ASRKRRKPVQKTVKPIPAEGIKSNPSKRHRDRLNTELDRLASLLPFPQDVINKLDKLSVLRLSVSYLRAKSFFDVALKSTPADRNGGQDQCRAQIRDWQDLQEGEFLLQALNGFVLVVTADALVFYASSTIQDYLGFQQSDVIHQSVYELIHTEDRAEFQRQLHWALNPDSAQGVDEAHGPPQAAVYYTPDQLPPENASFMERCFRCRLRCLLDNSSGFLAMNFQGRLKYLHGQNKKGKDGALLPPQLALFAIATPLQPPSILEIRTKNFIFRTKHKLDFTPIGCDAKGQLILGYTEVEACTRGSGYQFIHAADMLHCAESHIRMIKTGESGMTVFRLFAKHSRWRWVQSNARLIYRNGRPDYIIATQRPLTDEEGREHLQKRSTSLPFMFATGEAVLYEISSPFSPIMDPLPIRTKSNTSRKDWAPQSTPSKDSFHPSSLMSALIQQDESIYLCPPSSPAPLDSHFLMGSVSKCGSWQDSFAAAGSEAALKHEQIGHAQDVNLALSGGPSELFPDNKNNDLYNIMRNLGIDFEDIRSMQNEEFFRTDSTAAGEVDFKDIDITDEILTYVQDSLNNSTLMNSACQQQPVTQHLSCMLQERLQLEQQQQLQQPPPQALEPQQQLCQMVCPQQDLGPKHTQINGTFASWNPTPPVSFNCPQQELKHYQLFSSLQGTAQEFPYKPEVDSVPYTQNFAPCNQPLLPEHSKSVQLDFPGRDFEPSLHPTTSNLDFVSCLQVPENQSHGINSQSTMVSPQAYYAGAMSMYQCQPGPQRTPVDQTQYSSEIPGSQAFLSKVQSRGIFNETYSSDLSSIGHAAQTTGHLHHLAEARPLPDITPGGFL
T2 sequence (P53762 whole entry partner): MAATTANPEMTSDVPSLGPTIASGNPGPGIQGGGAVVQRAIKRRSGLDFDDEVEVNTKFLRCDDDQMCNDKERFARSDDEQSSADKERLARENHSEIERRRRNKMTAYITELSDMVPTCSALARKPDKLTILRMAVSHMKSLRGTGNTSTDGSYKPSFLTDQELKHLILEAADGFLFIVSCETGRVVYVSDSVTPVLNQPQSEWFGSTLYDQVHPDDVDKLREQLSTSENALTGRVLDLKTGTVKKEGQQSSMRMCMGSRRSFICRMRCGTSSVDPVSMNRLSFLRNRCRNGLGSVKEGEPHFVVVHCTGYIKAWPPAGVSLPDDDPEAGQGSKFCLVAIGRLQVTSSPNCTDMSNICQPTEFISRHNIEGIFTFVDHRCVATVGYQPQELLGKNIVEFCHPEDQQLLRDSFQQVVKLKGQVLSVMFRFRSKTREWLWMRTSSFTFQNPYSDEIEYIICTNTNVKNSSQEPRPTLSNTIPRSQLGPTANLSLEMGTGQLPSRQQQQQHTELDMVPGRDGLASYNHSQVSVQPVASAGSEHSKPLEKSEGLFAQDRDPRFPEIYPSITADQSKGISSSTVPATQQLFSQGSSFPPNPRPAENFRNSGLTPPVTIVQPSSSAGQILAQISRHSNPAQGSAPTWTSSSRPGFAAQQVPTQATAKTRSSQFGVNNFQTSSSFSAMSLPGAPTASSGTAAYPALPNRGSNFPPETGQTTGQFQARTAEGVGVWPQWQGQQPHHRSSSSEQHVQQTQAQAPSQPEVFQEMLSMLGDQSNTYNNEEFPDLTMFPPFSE

SMILES	change of relative binding affinity versus wild-type AhR (H331A mutant AhR; H331A mutation, in words)	IC50 (H331A mutant AhR; Table S6, AhR mutant H331A)	TCDD binding activity (L309A mutant AhR)
Cc1ccc2cc3c(ccc4ccccc43)c3c2c1CC3 [3MC, 3-methylcholanthrene]	dramatically increased	0.141 nM	
Clc1cc2c(cc1Cl)Oc1cc(Cl)c(Cl)cc1O2 [TCDD, 2,3,7,8-tetrachlorodibenzo-p-dioxin]			dramatically reduced
